Measurements reported in US11739043B2, “Illudin analogs, uses thereof, and methods for synthesizing the same” (Lantern Pharma Inc., priority 2018, dated 2023).

Legend:
Assay type in all cases: cell-based
HCC827 cell line = experiment: Cytotoxicity / growth inhibition, 96-well CellTiter-Glo assay, HCC827; details: Homo sapiens, 72 h; HCC827, lung cancer cell line, 3-day assay; read-out: GI50, concentration that inhibits 50% cell growth
Protocol: (§1) Cytotoxicity. The growth-inhibition activities of both purified UMAF (also referred to as UMAF in this example) optical enantiomers were studied in a standard 96-well cell-based assay using representative cell lines from prostate, ovarian, and lung cancers. The concentrations that cause a 50% inhibition of cell growth (GI50) were determined using a luminescent vital assay reagent (CellTiter-Glo®, Promega Corporation). The growth inhibition curves as a function of UMAF concentration are shown from a representative assay. […] The GI50 concentrations of the two forms for the six cell lines are shown below.

SK-OV3 cell line = experiment: Cytotoxicity / growth inhibition, 96-well CellTiter-Glo assay, SK-OV3; details: for GI50: Homo sapiens, SK-OV-3, 72 h, SK-OV3, ovarian cancer cell line, 3-day assay, read-out: GI50, concentration that inhibits 50% cell growth
Protocol: as §1

OVCAR-3 cell line = experiment: Cytotoxicity / growth inhibition, 96-well CellTiter-Glo assay, OVCAR-3; details: for GI50: Homo sapiens, 72 h, OVCAR-3, ovarian cancer cell line, 3-day assay, read-out: GI50, concentration that inhibits 50% cell growth
Protocol: as §1

PC3 cell line = experiment: Cytotoxicity / growth inhibition, 96-well CellTiter-Glo assay, PC3; details: Homo sapiens, PC-3, 72 h; PC3, prostate cancer cell line, 3-day assay; read-out: GI50, concentration that inhibits 50% cell growth
Protocol: as §1

H1975 cell line = experiment: Cytotoxicity / growth inhibition, 96-well CellTiter-Glo assay, H1975; details: for GI50: Homo sapiens, NCI-H1975, 72 h, H1975, lung cancer cell line, 3-day assay, read-out: GI50, concentration that inhibits 50% cell growth
Protocol: as §1

DU145 cell line = experiment: Cytotoxicity / growth inhibition, 96-well CellTiter-Glo assay, DU145; details: for GI50: Homo sapiens, DU-145, 72 h, DU145, prostate cancer cell line, 3-day assay, read-out: GI50, concentration that inhibits 50% cell growth
Protocol: as §1

SMILES	GI50 (HCC827 cell line)	GI50 (SK-OV3 cell line)	toxicity compared between the two enantiomers (growth inhibition curves) (SK-OV3 cell line; SK-OV3, FIG. 7)	GI50 (OVCAR-3 cell line)	toxicity compared between the two enantiomers (growth inhibition curves) (OVCAR-3 cell line; OVCAR3, FIG. 6)	GI50 (PC3 cell line)	toxicity compared between the two enantiomers (growth inhibition curves) (H1975 cell line; H1975, FIG. 9)	GI50 (H1975 cell line)	toxicity compared between the two enantiomers (growth inhibition curves) (DU145 cell line; DU145, FIG. 4)	GI50 (DU145 cell line)
CC1=C(CN(O)C(N)=O)C2=C(C)C3(CC3)[C@](C)(O)C(=O)C2=C1 [(+)-UMAF, (+)-hydroxyureamethylacylfulvene]	897 nM	554 nM	more toxic	254 nM	more toxic	1120 nM	more toxic	287 nM	more toxic	34.8 nM
CC1=C(CN(O)C(N)=O)C2=C(C)C3(CC3)[C@@](C)(O)C(=O)C2=C1 [(−)-UMAF, (−)-hydroxyureamethylacylfulvene]	1640 nM	2400 nM	–	1820 nM	–	824 nM	–	6320 nM	–	506 nM
